{"source": "ChEMBL document CHEMBL1201862", "about": "“PubChem BioAssay data set” (2004)", "key": {"[1]": {"test": "HepG2 cell cytotoxicity, dose response, cytotoxicity control, cherry-picked samples (AID 1159577)", "type": "functional, cell-based"}, "[2]": {"test": "P. falciparum Dd2 growth inhibitors, dose response, SYBR Green, cherry-picked samples (AID 1159567)", "type": "functional, cell-based"}, "Aminopeptidase N": {"molecular_target": "T1, Aminopeptidase N (Plasmodium falciparum FcB1/Columbia, UniProt O96935)", "T1 sequence (O96935 whole entry)": "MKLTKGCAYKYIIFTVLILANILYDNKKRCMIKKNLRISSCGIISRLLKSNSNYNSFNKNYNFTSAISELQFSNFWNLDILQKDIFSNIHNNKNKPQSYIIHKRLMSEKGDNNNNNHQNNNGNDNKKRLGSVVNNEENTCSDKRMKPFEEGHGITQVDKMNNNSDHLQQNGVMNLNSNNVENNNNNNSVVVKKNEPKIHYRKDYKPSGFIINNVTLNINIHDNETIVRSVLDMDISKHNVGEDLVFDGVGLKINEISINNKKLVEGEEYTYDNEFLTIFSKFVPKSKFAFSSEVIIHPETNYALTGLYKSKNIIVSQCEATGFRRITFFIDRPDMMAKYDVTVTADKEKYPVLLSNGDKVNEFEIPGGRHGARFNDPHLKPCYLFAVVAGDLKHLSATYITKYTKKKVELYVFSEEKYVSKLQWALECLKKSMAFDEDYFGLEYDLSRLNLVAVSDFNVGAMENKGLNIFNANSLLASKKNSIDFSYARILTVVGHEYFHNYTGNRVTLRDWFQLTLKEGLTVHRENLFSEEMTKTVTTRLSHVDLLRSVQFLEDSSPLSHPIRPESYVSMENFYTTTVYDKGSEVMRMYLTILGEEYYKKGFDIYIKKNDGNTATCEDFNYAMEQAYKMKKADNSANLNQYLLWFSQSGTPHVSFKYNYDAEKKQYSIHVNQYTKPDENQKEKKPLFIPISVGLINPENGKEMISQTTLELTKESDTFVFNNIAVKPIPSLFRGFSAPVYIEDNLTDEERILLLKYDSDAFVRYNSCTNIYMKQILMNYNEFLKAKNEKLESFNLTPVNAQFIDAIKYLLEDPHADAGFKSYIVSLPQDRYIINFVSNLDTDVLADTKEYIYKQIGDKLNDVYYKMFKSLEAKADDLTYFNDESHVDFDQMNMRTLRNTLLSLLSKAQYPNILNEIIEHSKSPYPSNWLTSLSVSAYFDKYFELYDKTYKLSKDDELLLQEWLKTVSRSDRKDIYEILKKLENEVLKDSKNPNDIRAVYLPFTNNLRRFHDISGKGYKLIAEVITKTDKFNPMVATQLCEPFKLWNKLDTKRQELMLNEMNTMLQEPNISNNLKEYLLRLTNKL", "test": "P. falciparum M1AAP inhibitors, biochemical, fluorogenic H-Leu-NHMec substrate, 1536-well (AID 1445)", "design": "species or system Plasmodium falciparum 3D7, 3D7"}, "[3]": {"test": "M. tuberculosis H37Rv growth inhibitors, H37Rv strain (AID 1626)", "type": "functional"}, "[4]": {"molecular_target": "T2, Low molecular weight phosphotyrosine protein phosphatase (Homo sapiens, UniProt P24666)", "T2 sequence (P24666 whole entry)": "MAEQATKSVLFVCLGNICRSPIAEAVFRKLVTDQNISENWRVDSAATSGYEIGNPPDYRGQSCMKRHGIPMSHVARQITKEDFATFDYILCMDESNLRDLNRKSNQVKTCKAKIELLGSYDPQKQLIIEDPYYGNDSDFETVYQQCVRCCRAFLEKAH", "test": "LMPTP phosphatase inhibitors, colorimetric pNPP readout, dose response, orthogonal assay, biochemical, absorbance, pNPP substrate, LMPTP-A isoform, set 2 (AID 743308)", "type": "functional"}, "[5]": {"molecular_target": "T2, Low molecular weight phosphotyrosine protein phosphatase", "test": "LMPTP phosphatase inhibitors, dose response, biochemical, OMFP substrate, fluorescence intensity, set 2 (AID 743307)", "type": "functional"}, "[6]": {"molecular_target": "T3, Rac GTPase-activating protein 1 (Homo sapiens, UniProt Q9H0H5)", "T3 sequence (Q9H0H5 whole entry)": "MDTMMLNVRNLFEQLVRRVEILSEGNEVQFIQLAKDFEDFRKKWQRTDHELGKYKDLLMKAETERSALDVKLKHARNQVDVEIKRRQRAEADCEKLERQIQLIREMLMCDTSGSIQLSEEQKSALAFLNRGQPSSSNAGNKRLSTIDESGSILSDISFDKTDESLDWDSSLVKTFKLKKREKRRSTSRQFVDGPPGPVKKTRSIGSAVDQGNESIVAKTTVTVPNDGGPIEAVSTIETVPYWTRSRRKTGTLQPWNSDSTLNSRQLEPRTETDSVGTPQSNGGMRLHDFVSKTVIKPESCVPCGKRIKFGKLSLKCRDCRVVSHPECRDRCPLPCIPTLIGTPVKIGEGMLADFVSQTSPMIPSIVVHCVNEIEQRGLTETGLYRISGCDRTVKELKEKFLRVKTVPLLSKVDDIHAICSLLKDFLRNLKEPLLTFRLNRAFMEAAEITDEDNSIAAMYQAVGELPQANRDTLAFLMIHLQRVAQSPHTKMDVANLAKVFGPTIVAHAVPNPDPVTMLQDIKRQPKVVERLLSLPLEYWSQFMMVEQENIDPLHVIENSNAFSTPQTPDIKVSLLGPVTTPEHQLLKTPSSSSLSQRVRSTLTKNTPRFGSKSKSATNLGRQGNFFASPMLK", "test": "MgcRacGAP GTPase-activating activity inhibitors, confirmation, biochemical, ADP Hunter fluorescence, primary and confirmatory (AID 624330)", "type": "functional"}, "[7]": {"molecular_target": "T4, Mannose-6-phosphate isomerase (Homo sapiens, UniProt P34949)", "T4 sequence (P34949 whole entry)": "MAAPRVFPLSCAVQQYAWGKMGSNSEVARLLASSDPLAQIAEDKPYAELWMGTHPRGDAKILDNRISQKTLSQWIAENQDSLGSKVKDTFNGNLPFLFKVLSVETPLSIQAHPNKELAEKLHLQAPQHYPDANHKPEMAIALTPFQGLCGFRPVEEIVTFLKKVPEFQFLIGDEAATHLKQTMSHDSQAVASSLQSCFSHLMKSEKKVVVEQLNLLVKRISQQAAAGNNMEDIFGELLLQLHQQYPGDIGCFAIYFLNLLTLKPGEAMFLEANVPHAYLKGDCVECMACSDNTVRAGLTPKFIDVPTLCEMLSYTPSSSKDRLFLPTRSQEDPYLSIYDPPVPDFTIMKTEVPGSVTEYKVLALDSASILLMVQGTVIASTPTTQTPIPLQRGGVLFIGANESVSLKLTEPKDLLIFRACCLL", "test": "inhibitors of human PMI, primary screen, biochemical, fluorescence intensity, coupled assay (AID 1209)"}, "Nonstructural protein 1": {"molecular_target": "Nonstructural protein 1 (Influenza A virus, UniProt Q194T2)", "sequence (Q194T2 whole entry)": "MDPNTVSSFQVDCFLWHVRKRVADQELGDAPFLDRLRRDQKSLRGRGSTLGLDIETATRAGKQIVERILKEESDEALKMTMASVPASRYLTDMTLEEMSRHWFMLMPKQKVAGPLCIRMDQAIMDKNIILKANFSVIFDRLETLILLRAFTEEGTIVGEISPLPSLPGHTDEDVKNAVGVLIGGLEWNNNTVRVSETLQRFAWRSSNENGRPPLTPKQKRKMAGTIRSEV", "type": "functional, Influenza A virus (A/California/07/2009(H1N1))"}, "Streptokinase A": {"molecular_target": "T5, Streptokinase A (Streptococcus pyogenes serotype M1, UniProt P10520)", "T5 sequence (P10520 whole entry)": "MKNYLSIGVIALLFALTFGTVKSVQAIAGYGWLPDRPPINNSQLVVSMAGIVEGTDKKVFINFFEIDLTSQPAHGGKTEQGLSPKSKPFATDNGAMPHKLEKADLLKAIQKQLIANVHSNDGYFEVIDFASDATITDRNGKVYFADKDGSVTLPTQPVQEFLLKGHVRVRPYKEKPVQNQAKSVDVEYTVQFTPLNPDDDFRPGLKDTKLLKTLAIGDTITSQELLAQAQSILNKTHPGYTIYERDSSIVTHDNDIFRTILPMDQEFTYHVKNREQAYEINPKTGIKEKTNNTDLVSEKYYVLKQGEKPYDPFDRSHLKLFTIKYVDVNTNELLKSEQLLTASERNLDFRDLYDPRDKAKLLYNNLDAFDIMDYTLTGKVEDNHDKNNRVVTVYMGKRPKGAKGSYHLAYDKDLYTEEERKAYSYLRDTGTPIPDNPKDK", "test": "S. pyogenes streptokinase expression inhibitors, potency, dose response, plasminogen activation absorbance, OD405 (AID 1914);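 further: secreted streptokinase activity via plasminogen activation per viability signal from cell pellet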", "type": "functional, Streptococcus pyogenes M1 GAS"}, "[8]": {"test_system": "Streptococcus sp. 'group A'", "test": "growth inhibition of control SK(-) GAS strain, dose response, counter-screen for streptokinase expression inhibitor project, luminescence, kanamycin, BacTiterGlo, confirmation (AID 1900)", "type": "functional, organism-based"}, "[9]": {"molecular_target": "T4, Mannose-6-phosphate isomerase", "test": "human PMI inhibitors, high substrate, primary screen, biochemical, fluorescence intensity, high mannose 6-phosphate (AID 1220)"}, "Vero": {"test_system": "Vero", "test": "Vero cell cytotoxicity, cytotoxicity control for flavivirus capping enzyme inhibitors (AID 588742)", "type": "functional", "details": "Chlorocebus sabaeus"}, "Streptococcus": {"test_system": "Streptococcus", "test": "Group A Streptococcus viability loss, dose response, counter-screen for streptokinase expression inhibitor project, luminescence, BacTiterGlo (AID 1915);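 further: potency for reduction of bacterial viability or growth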", "type": "functional, organism-based"}, "[10]": {"test": "Jurkat T cell cytotoxicity, dose response, cytotoxicity control for P. falciparum gametocyte viability project, luminescence (AID 1117277);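 further: potency reflects loss of cellular ATP meaning fewer viable cells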", "type": "functional, cell-based"}, "[11]": {"test": "P. falciparum late gametocyte killing, dose response, luminescence (AID 1117278);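 further: gametocytes exposed to compound for 24 hours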", "type": "functional, cell-based"}, "[12]": {"molecular_target": "G-protein coupled receptor 183 (Homo sapiens, UniProt P32249)", "sequence (P32249 whole entry)": "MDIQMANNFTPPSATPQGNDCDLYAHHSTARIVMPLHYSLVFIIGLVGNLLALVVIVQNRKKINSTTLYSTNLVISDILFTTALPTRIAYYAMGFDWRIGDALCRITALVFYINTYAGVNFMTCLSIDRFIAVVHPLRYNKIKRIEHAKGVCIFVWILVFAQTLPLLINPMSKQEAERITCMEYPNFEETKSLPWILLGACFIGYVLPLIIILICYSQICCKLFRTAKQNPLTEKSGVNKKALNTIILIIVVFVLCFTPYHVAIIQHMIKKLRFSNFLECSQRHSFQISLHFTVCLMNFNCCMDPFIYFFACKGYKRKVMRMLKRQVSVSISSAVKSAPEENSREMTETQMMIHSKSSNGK", "test": "SAR confirmation of small molecule antagonists of the EBI2 receptor via a luminescent beta-arrestin assa.", "type": "functional"}}, "note": "Activity calls are given as the source filed them.", "data": [{"smiles": "CCc1nc(N2[C@H](C#N)[C@H](c3ccccc3-c3ccccc3F)[C@@H]2CO)sc1C", "values": [{"measurement": "AC50", "setting": "[1]", "result": "> 39 µM (inactive)"}, {"measurement": "AC50", "setting": "[2]", "result": "8.71 µM (active)"}]}, {"smiles": "N#C/C(=C(/O)CSc1nnc(Cc2cccs2)n1C1CCCCC1)c1nc2ccccc2[nH]1", "values": [{"measurement": "IC50", "setting": "Aminopeptidase N", "result": "78.9 µM (active)"}, {"measurement": "IC50", "setting": "[3]", "result": "> 100 µM (active)"}]}, {"smiles": "c1ccc(-c2cc(OCCCN3CCCCC3)c3ccccc3n2)cc1", "values": [{"measurement": "IC50", "setting": "[4]", "result": "19 µM (active)"}, {"measurement": "IC50", "setting": "[5]", "result": "11.5 µM (active)"}]}, {"smiles": "NC(=S)N/N=C/c1cccc(O)c1O", "values": [{"measurement": "IC50", "setting": "[6]", "result": "31.5 µM (active)"}, {"measurement": "IC50", "setting": "[7]", "result": "11 µM (active)"}, {"measurement": "IC50", "setting": "Nonstructural protein 1", "result": "4.5 µM (active)"}]}, {"smiles": "Oc1c(Cl)cc(Cl)c2c1NCCC2", "values": [{"measurement": "EC50", "setting": "Streptokinase A", "result": "> 150 µM (not active)"}, {"measurement": "IC50", "setting": "[6]", "result": "31.4 µM (active)"}, {"measurement": "EC50", "setting": "[8]", "result": "5.36 µM (active)"}, {"measurement": "IC50", "setting": "[9]", "result": "25.3 µM (active)"}, {"measurement": "CC50", "setting": "Vero", "result": "34.5 µM (active)"}, {"measurement": "EC50", "setting": "Streptococcus", "result": "85.5 µM (active)"}]}, {"smiles": "COc1cc2nc(-c3ccccc3)cc(NCCCN3CCCCC3)c2cc1OC", "values": [{"measurement": "IC50", "setting": "[4]", "result": "> 80 µM (inactive)"}, {"measurement": "IC50", "setting": "[5]", "result": "> 80 µM (inactive)"}]}, {"smiles": "CC(C)(C)c1cccc(OCCCSc2ncccn2)c1", "values": [{"measurement": "IC50", "setting": "[10]", "result": "> 83.3 µM (inactive)"}, {"measurement": "IC50", "setting": "[11]", "result": "> 109 µM (inactive)"}]}, {"smiles": "O=C(/C=C/c1ccc(Br)cc1)N1CCN(Cc2ccc(F)cc2C(F)(F)F)CC1", "values": [{"measurement": "IC50", "setting": "[12]", "result": "8.18 nM (active)"}]}]}
